Target: T1, Abl T315I kinase domain (unphosphorylated) (Mus musculus, UniProt P00520, T315I)
T1 construct: purified and unphosphorylated T315I Abl kinase domain; made in house; host or cells: E. coli BL21(DE3) strains
T1 sequence (P00520 242-493 T315I limits assumed): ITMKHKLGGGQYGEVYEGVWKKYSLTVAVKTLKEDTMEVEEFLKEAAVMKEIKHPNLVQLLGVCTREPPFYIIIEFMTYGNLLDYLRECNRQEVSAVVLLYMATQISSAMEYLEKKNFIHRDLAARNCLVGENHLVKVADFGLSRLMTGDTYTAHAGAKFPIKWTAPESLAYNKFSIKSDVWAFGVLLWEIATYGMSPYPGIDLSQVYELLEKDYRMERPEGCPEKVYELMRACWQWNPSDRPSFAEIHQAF
Assay: Abl_T315I Bioassay (c-Abl PK/LDH coupled enzyme assay)
Assay type: biochemical
Details: 10 μM ATP
Text: Although the first of these examples uses the kinase domain of a mutant form of Abl T315I (“Abl T315I KD”), the kinase assays may use various forms of mutant and wild type enzymes, including, for example, the entire protein, the kinase domain, or a portion thereof (e.g. Abl Y393F). The kinases used in the assays may also be of varying phosphorylation states. In the c-Abl example, a mutant kinase at a zero phosphorylation state was used.
In the c-Abl Pyruvate Kinase (PK)/Lactate Dehydrogenase (LDH) Coupled Assay the protein kinase dependant phosphorylation of a substrate peptide was coupled to the oxidation of NADH. The oxidation of NADH to NAD+ was detected by monitoring a decrease in absorbance at 340 nm.
Materials: Abl substrate peptide=EAIYAAPFAKKK (SEQ ID NO:1)-OH (Biopeptide, San Diego, Calif.); βNADH (Sigma Cat#N-8129, FW=709.4); 2M MgCl2; 1M HEPES buffer, pH 7.5; Phosphoenolpyruvate (PEP) (Sigma Cat#P-7002, FW=234); Lactate dehydrogenase (LDH) (Worthington Biochemical Cat#2756); Pyruvate Kinase (PK) (Sigma Cat#P-9136); ATP (Sigma Cat#A-3377, FW=551); Greiner 384-well UV star plate; and purified and unphosphorylated T315I Abl kinase domain.
Stock Solutions: 10 mM NADH (7.09 mg/ml in miliQH2O) made fresh daily; 10 mM Abl substrate peptide (13.4 mg/ml in miliQH2O) stored at −20° C.; 100 mM HEPES buffer, pH 7.5 (5 ml 1M stock+45 ml miliQH2O); 100 mM MgCl2 (5 ml 2M MgCl2+95 ml dH2O); 100 mM PEP (23.4 mg/ml in dH2O) stored at −20° C.; 10 mM ATP (5.51 mg/ml in dH2O) stored at −20° C. (diluted 50 μl into total of 10 ml miliQH2O daily=50 μM ATP working stock); 1000 U/ml PK (U/mg varies with lot) flash-frozen under liquid N2 and stored at −80° C.; and 1000 U/ml LDH (U/mg varies with lot) flash-frozen under liquid N2 and stored at −80° C.
Standard Assay Setup for 384-well format (50 μl reaction): 300 μM NADH; 10 mM MgCl2; 2 mM PEP; 45 U/ml PK; 60 U/ml LDH; 200 μM Abl substrate peptide; 2.5 μl test compound (in DMSO); 2 μg/ml Abl kinase domain; 10 μM ATP; 100 mM HEPES buffer. Positive controls contained DMSO with no test compound. Negative controls contained 5 μl of 0.5M EDTA (50 mM in the assay). The dephosphorylated form of the c-Abl T315I mutant was used in the biochemical screening assays. The kinase reaction was initiated at time t=0 by the addition of ATP.
Activity was measured by following the time-dependent loss of NADH by absorbance spectroscopy at 340 nm. The linear portion of the resulting progress curve was then analyzed by linear regression to get the activity in absorbance units/time, reported as the slope of that best fit line (moles/unit time can be calculated from using molar extinction coefficient for NADH at 340 nm, 6250M^−1 cm^−1).
Data was evaluated using the equation: Z′=1−[3*(σ++σ−)/|μ+−μ−|](Zhang, et al., 1999 J Biomol Screening 4(2) 67-73), where μ denotes the mean and σ the standard deviation. The subscript designates positive or negative controls. The Z′ score for a robust screening assay should be ≧0.50. The typical threshold=μ+−3*σ+. Any value that falls below the threshold was designated a “hit”.
Dose response was analyzed using the equation: y=min+{(max−min)/(1+10^[compound]−logIC50)}, where y is the observed initial slope, max=the slope in the absence of inhibitor, min=the slope at infinite inhibitor, and the IC50 is the [compound] that corresponds to ½ the total observed amplitude (Amplitude=max−min).
To measure modulation, activation, or inhibition of Abl KD, a test compound was added to the assay at a range of concentrations. Inhibitors may inhibit Abl KD activity at an IC50 in the micromolar range, the nanomolar range, or, for example, in the subnanomolar range.
An open-reading frame for c-Abl was amplified from a Mus musculus (mouse) cDNA library prepared from freshly harvested mouse liver using a commercially available kit (Invitrogen) by PCR using the following primers: […]
The c-Abl T315I KD (kinase domain) was purified as follows. […]

Row | Structure (SMILES) | IC50 [nM]
1 | N#Cc1cc(-c2cnc3[nH]cc(-c4ccc5[nH]ccc5c4)c3c2)ccc1O [AE20] | < 50
2 | COc1ccccc1-c1c[nH]c2ncc(-c3ccc(S(N)(=O)=O)cc3)cc12 [AE21] | < 50
3 | c1cc2cc(-c3c[nH]c4ncc(-c5ccc6[nH]cnc6c5)cc34)ccc2[nH]1 [AE22] | < 50
4 | COc1ccccc1-c1c[nH]c2ncc(-c3ccc(O)c(CN4CCCN(C)CC4)c3)cc12 [AE41] | < 50
5 | COc1ccccc1-c1c[nH]c2ncc(-c3cccc(C(=N)N4CCCCC4)c3)cc12 [AE42] | < 50
6 | Oc1cccc(-c2cnc3[nH]cc(-c4ccc(O)c(F)c4)c3c2)c1 [AE48] | < 50
7 | Oc1cccc(-c2cnc3[nH]cc(-c4ccn[nH]4)c3c2)c1 [AE49] | < 50
8 | Nc1nc(-c2c[nH]c3ncc(-c4ccc5[nH]ccc5c4)cc23)cs1 [AE55] | < 50
9 | COc1cc(-c2cnc3[nH]cc(-c4ccc(O)cc4)c3c2)ccc1O [AE58] | < 50
10 | COc1cc(-c2cnc3[nH]cc(-c4ccccc4OC)c3c2)ccc1O [AE64] | < 50
11 | COc1cc(-c2cnc3[nH]cc(-c4ccccc4OC)c3c2)ccc1OCCN1CCCC1 [AE65] | < 50
12 | COc1ccccc1-c1c[nH]c2ncc(-c3ccc[nH]3)cc12 [AE67] | < 50
13 | COCCOc1ccc(-c2cnc3[nH]cc(-c4ccccc4OC)c3c2)cc1OCCOC [AE68] | < 50

The remaining lines, values ahead:

Row | IC50 [nM] | Structure (SMILES)
14 | < 50 | CNC(=O)c1cncc(-c2cnc3[nH]cc(-c4ccccc4OC)c3c2)c1 [AE1]
15 | < 50 | CNC(=O)c1cc(-c2cnc3[nH]cc(-c4ccccc4OC)c3c2)cs1 [AE2]
16 | < 50 | COc1ccccc1-c1c[nH]c2ncc(-c3csc(C(=O)N(C)C)c3)cc12 [AE3]
17 | < 50 | COc1ccccc1-c1c[nH]c2ncc(-c3ccc(CN(C)C)cc3)cc12 [AE8]
18 | < 50 | COc1ccccc1-c1c[nH]c2ncc(-c3cc[nH]c(=O)c3)cc12 [AE9]
19 | < 50 | COc1ccccc1-c1c[nH]c2ncc(-c3ccc4[nH]cc(CC(=O)O)c4c3)cc12 [AE10]
20 | < 50 | COc1ccccc1-c1c[nH]c2ncc(-c3ccc(S(N)(=O)=O)s3)cc12 [AE11]
21 | < 50 | COc1ccccc1-c1c[nH]c2ncc(-c3cccc(S(C)(=O)=O)c3)cc12 [AE13]
22 | < 50 | O=C(c1cncc(-c2cnc3[nH]cc(-c4ccc5cc[nH]c5c4)c3c2)c1)N1CCOCC1 [AE14]
